BindingDB's records for doi:10.3109/14756366.2012.763163 (Atatürk University, 2014)
Where a name gives a salt, the structure may show the parent alone.

Key:
[1] = target: Carbonic anhydrase 1 (Homo sapiens, UniProt P00915); experiment: Esterase Activity Assay; conditions: pH 7.4; 25 °C
Description: (§1) CA activity was assayed by following the change in absorbance at 348 nm of 4-nitrophenylacetate (NPA) to 4-nitrophenylate ion over a period of 3 min at 25 °C using a spectrophotometer (Shimadzu, UVmini-1240 UV-VIS spectrophotometer) according to the method described by Verpoorte et al.37 The enzymatic reaction contained 1.4mL 0.05M Tris-SO4 buffer (pH 7.4), 1mL 3mM 4-NPA, 0.5mL H2O and 0.1mL enzyme solution (total volume, 3.0 mL). A reference measurement was obtained bypreparing the mixture without the enzyme solution. All measurements were recorded in triplicate.

[2] = target: Carbonic anhydrase 2 (Homo sapiens, UniProt P00918); experiment: Esterase Activity Assay; conditions: pH 7.4; 25 °C
Description: as §1

Sequence of Carbonic anhydrase 1 (P00915 whole entry): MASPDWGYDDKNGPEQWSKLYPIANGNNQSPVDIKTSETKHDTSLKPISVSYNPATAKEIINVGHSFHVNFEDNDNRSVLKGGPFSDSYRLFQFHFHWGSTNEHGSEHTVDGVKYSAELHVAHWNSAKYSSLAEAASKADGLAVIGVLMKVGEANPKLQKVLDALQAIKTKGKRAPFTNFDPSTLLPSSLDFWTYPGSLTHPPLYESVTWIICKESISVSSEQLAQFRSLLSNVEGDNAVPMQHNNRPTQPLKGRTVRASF

Structure (SMILES)	Ki [1] [µM]	Ki [2] [µM]
COc1ccc(C(NS(C)(=O)=O)c2ccc(OC)c(OC)c2)cc1OC [N-(bis(3,4-dimethoxyphenyl)methyl)methanesulfonamide (26)]	25.6	18.1
COc1ccc(C(NS(C)(=O)=O)c2cccc(OC)c2OC)cc1OC (centres undefined) [N-((2,3-dimethoxyphenyl)(3,4-dimethoxyphenyl)methyl)methanesulfonamide (28)]	3.68	9.23
COc1ccc(C(N)c2ccc(OC)c(OC)c2)c(OC)c1 (centres undefined) [(2,4-Dimethoxyphenyl)(3,4-dimethoxyphenyl)methanamine hydrochloride (23)]	36	34.3
COc1ccc(C(NS(C)(=O)=O)c2cc(OC)c(OC)cc2C)cc1OC (centres undefined) [N-((4,5-dimethoxy-2-methylphenyl)(3,4-dimethoxyphenyl)methyl)methane sulfonamide (27)]	48.6	18.9
COc1ccc(C(N)c2ccc(OC)c(OC)c2)cc1OC [bis(3,4-dimethoxyphenyl)methanamine hydrochloride (22)]	13.7	15.6
COc1ccc(C(N)c2cc(OC)c(OC)cc2C)cc1OC (centres undefined) [(4,5-Dimethoxy-2-methylphenyl)(3,4-dimethoxyphenyl)methanamine hydrochloride (24)]	39.5	47.6
COc1ccc(C(N)c2cccc(OC)c2OC)cc1OC (centres undefined) [(2,3-Dimethoxyphenyl)(3,4-dimethoxyphenyl)methanamine hydrochloride (25)]	66.9	73.3
